As usually defined, the IC50 is the concentration at which inhibition is half-maximal.

The text below walks through data of BindingDB's records for doi:10.1016/j.bmcl.2021.128058 (Hibercell, 2021).

Where only a bound is given, the exact number is not on record here.

A short description of the experiment: Inhibition of eIF2alpha (unknown origin) assessed as eIF2alpha phosphorylation by TR-FRET assay. (In general: Time-resolved FRET reads energy transfer from a long-lived donor to a nearby acceptor.)
Regarding `Cc1cc(NC(=O)[C@H](O)c2cc(F)cc(F)c2)ccc1-c1cnc(N)c(C(=O)NC(C)C)c1`, the IC50 was 33 nM.
In the case of `Cc1cc(NC(=O)[C@@H](O)c2cc(F)cc(F)c2)ccc1-c1cnc(N)c(C(=O)NC(C)C)c1`, the IC50 was determined as 187 nM.
Regarding `Cc1cc(NC(=O)[C@H](O)c2ccccc2)ccc1-c1cnc(N)c(C(=O)NC(C)C)c1`, the IC50 was 198 nM.
For the compound `Cc1cc(NC(=O)Cc2ccccc2)ccc1-c1cnc(N)c(C(=O)NC(C)C)c1`, the IC50 is 307 nM.
In the case of `Cc1cc(NC(=O)Oc2ccccc2)ccc1-c1cnc(N)c(C(=O)NC(C)C)c1`, the IC50 is over 10000 nM.
For `Cc1cc(NC(=O)Nc2ccccc2)ccc1-c1cnc(N)c(C(=O)NC(C)C)c1`, the IC50 was determined as 2360 nM.
`CO[C@@H](C(=O)Nc1ccc(-c2cnc(N)c(C(=O)NC(C)C)c2)c(C)c1)c1ccccc1`: the IC50 amounted to 3340 nM.
For `Cc1cc(NC(=O)[C@](C)(O)c2ccccc2)ccc1-c1cnc(N)c(C(=O)NC(C)C)c1`, the IC50 turned out to be 2130 nM.
Take `Cc1cc(NC(=O)[C@@](C)(O)c2ccccc2)ccc1-c1cnc(N)c(C(=O)NC(C)C)c1`: the IC50 turned out to be 3020 nM.
As for `Cc1cc(NC(=O)[C@H](O)c2cc(F)cc(F)c2)ccc1-c1cnc(N)c(C(=O)OC(C)C)c1`, the IC50 amounted to 49 nM.
Turning to `CNC(=O)c1cc(-c2ccc(NC(=O)[C@H](O)c3cc(F)cc(F)c3)cc2C)cnc1N`, the IC50 was found to be 58 nM.
Regarding `Cc1cc(NC(=O)[C@H](O)c2cc(F)cc(F)c2)ccc1-c1cnc(N)c(C(=O)N(C)C)c1`, the IC50 worked out at 2220 nM.
On to `CCNC(=O)c1cc(-c2ccc(NC(=O)[C@H](O)c3cc(F)cc(F)c3)cc2C)cnc1N`, for which the half-maximal inhibitory concentration (IC50) turned out to be 45 nM.
With `Cc1cc(NC(=O)[C@H](O)c2cc(F)cc(F)c2)ccc1-c1cnc(N)c(C(=O)NC2CC2)c1`, the IC50 stood at 27 nM.
Take `Cc1cc(NC(=O)[C@H](O)c2cc(F)cc(F)c2)ccc1-c1cnc(N)c(C(=O)NC(C)(C)C)c1`: the IC50 was 114 nM.
`Cc1cc(NC(=O)[C@H](O)c2cccc(Cl)c2)ccc1-c1cnc(N)c(C(=O)NC(C)C)c1`: the IC50 was found to be 40 nM.
`Cc1cccc([C@@H](O)C(=O)Nc2ccc(-c3cnc(N)c(C(=O)NC(C)C)c3)c(C)c2)c1`: the IC50 was determined as 54 nM.
With `CCc1cccc([C@@H](O)C(=O)Nc2ccc(-c3cnc(N)c(C(=O)NC(C)C)c3)c(C)c2)c1`, the IC50 is 18 nM.
Turning to `CC(C)NC(=O)c1cc(-c2ccc(NC(=O)[C@H](O)c3cc(F)cc(F)c3)cc2)cnc1N`, the IC50 stood at 313 nM.
Turning to `CC(C)NC(=O)c1cc(-c2ccc(NC(=O)[C@H](O)c3cc(F)cc(F)c3)cc2F)cnc1N`, the IC50 was determined as 72 nM.
In the case of `CC(C)NC(=O)c1cc(-c2ccc(NC(=O)[C@H](O)c3cc(F)cc(F)c3)cc2Cl)cnc1N`, the concentration for half-maximal inhibition (IC50) is 23 nM.
`CCc1cc(NC(=O)[C@H](O)c2cc(F)cc(F)c2)ccc1-c1cnc(N)c(C(=O)NC(C)C)c1`: the IC50 came out at 9 nM.
As for `COc1cc(NC(=O)[C@H](O)c2cc(F)cc(F)c2)ccc1-c1cnc(N)c(C(=O)NC(C)C)c1`, the IC50 is 366 nM.
The value for `Cc1cc(NC(=O)[C@H](O)c2cc(F)cc(F)c2)ccc1-c1cnc(N)c(C(=O)NC(C)C)n1` was 42 nM.
As for `Cc1cc(NC(=O)[C@H](O)c2cc(F)cc(F)c2)ccc1-c1cc(C(=O)NC(C)C)c(N)nn1`, the IC50 is 7650 nM.
Consider `Cc1cc(NC(=O)[C@H](O)c2cc(F)cc(F)c2)ccc1-c1cncc(C(=O)NC(C)C)c1`, for which the IC50 is 181 nM.
For `Cc1cc(NC(=O)[C@H](O)c2cc(F)cc(F)c2)ccc1-c1cnc(C)c(C(=O)NC(C)C)c1`, the IC50 came to 638 nM.
To `CNc1ncc(-c2ccc(NC(=O)[C@H](O)c3cc(F)cc(F)c3)cc2C)cc1C(=O)NC(C)C` belongs 4030 nM; to `Cc1cc(NC(=O)[C@H](O)c2cc(F)cc(F)c2)ccc1-c1ccc(N)nc1`, over 10000 nM; to `CNC(=O)c1nc(-c2ccc(NC(=O)[C@H](O)c3cc(F)cc(F)c3)cc2C)cnc1N`, 40 nM.
